From publication PMC7235863, “Benzamide Derivatives Targeting the Cell Division Protein FtsZ: Modifications of the Linker and the Benzodioxane Scaffold and Their Effects on Antimicrobial Activity” (Antibiotics, 2020)
Values after ≈ are worked out from the molar mass of the structure shown. Read-outs that look alike come from different tables or passages of the source.

Experiments:
MRC-5 cells = test: MTT cytotoxicity assay; assay type: cell-based, human; settings: MRC-5, concentration reducing cell viability by 90%, 24-h incubation
Description: The compounds showing the most promising activities vs. MRSA were also assessed for their cytotoxicity on human MRC-5 cells. TD90, the concentration (µg/mL) able to reduce by 90% the viability of these cells, was determined together with the therapeutic index (TI), expressed as the ratio between TD90 and MBC values.
(§1) Normal human lung fibroblasts (MRC-5) were grown in Dulbecco’s modified Eagle’s medium (DMEM) supplemented with 10% calf serum, 100 U/mL penicillin and […] streptomycin in an incubator at 5% CO2 atmosphere and 37 °C. The Gram-positive Staphylococcus aureus (methicillin-sensitive, MSSA ATCC 29213, and methicillin-resistant, MRSA ATCC 43300) and the Gram-negative Escherichia coli (ESBL, extended-spectrum beta-lactamase-positive) bacterial cells were grown in Luria-Bertani broth (LB) at 37 °C under constant shaking at 300 rpm.
Compounds showing an antibacterial activity at a concentration lower than 10 μg/mL were serially diluted in DMEM and tested on MRC-5 cells by the MTT cytotoxicity assay (Sigma, St Louis, MO, USA). Cells (10^4 cells/well) were tested in a 96-well plate, in quadruplicate, using serially two-fold-diluted concentrations of the compound in 100 μL DMEM medium. After a 24-h incubation, the compound was removed, and the cells were overlaid with 1 mg/mL MTT in 100 μL serum-free DMEM for 3 h at 37 °C. The MTT solution was then replaced with DMSO for 10 min, and the absorbance was measured at 570 nm. The percentage of cytotoxicity was calculated by the formula [100 − (sample OD/untreated cells OD) × 100]. The compound concentration reducing cell viability by 90% was defined as the TD90 cytotoxic dose. The “therapeutic index” (TI) was also determined and defined as the ratio between TD90 and the MBC values.

E. coli N43 [1] = test: Broth microdilution MIC, efflux-defective E. coli N43; assay type: cell-based, Escherichia coli; settings: E. coli N43 (AcrAB knockout)
Description: (§2) We thus tested 1–8 and III initially on the reference sensitive E. coli ATCC 25922 and on the extended-spectrum of beta-lactamase-positive (ESBL) E. coli, as Gram-negative bacteria. Moreover, in order to evaluate the susceptibility of this series of compounds to the efflux pump AcrAB, we employed also the above-mentioned E. coli N43, which is the knockout of the AcrAB cell membrane pump.
(§3) Antibacterial activities of compounds were determined by the broth microdilution method against MDRSA 11.7, MDRSA 12.1 and E. coli N43 following the European Committee on Antimicrobial Susceptibility Testing (EUCAST) recommendations and Clinical and Laboratory Standards Institute (CLSI) guidelines. Strains MDRSA ST-11.7 and ST-12.1 were obtained through the interlaboratory control organized by the EU Reference Laboratory—Antimicrobial Resistance. Only data on their resistance to antibiotics are known, but other data are not available.
(§4) Bacterial suspension of specific bacterial strain equivalent to 0.5 McFarland turbidity standard was diluted with cation-adjusted Mueller Hinton broth with TES (Thermo Fisher Scientific), to obtain a final inoculum of 10^5 CFU/mL. Compounds dissolved in DMSO and inoculum were mixed together and incubated for 20 h at 37 °C. After incubation, the minimal inhibitory concentration (MIC) values were determined by visual inspection as the lowest dilution of compounds showing no turbidity. Tetracycline was used as a positive control on every assay plate.

MRSA ATCC 43300 = test: MIC/MBC determination in LB broth, MRSA; assay type: cell-based, Staphylococcus aureus
Description: as §1
(§5) The antibacterial activity was tested on both a methicillin-sensitive and a methicillin-resistant S. aureus strain, and an ESBL E. coli clinical isolate. All the compounds were dissolved at the final concentration of 20 mg/mL in dimethyl sulfoxide (DMSO) and serially diluted in LB. Fresh cell cultures were used at 10^5 cells/mL in a final volume of 2 mL. Each bacterial sample was grown with different compound concentrations that ranged from 100 to 0.1 μg/mL. […] To determine the MBC, the bacteria were then washed three times with LB, centrifuged at 900× g for 10 min at 4 °C, and the pellet resuspended in fresh LB. After overnight incubation at 37 °C, the absence of growth was confirmed by OD measurement. The presence of antibacterial activity, at any concentration tested, was established for values of absorbance < 0.1 OD600. All tests were performed in quadruplicate and for each series of experiments, both positive (no compounds) and negative (no bacteria) controls were included.

E. coli ATCC 25922 [2] = test: MIC on reference sensitive E. coli; assay type: cell-based, Escherichia coli; settings: E. coli ATCC 25922
Source text: as §2

S. aureus ATCC 43300 = test: Transmission electron microscopy of septum formation; assay type: cell-based, Staphylococcus aureus; settings: MRSA cultured overnight; 1 at 1 μg/mL, DFNB at 0.25 μg/mL
Source text: After having assessed the antimicrobial profile of this class of derivatives, we chose 1 to be further analyzed by transmission electron microscopy (TEM), in order to evaluate any morphological changes in septum formation, as done before as a simple FtsZ target validation assay. We cultured S. aureus ATCC 43300 alone or in the presence of 1 and 2,6-difluorononyloxybenzamide (DFNB) as a reference FtsZ inhibitor (positive control). […] These are the typical effects of the inhibition of FtsZ assembly and consequently of the block of bacterial cell division.
S. aureus ATCC 43300 (10^9 cells/mL) were cultured in the presence of 1 and DFNB (positive control), at the same concentrations used for optical microscopy and, after 16 h incubation at 37 °C, the cells were harvested and processed for transmission electron microscopy, as already described. Untreated S. aureus was used as negative control. After centrifugation at 3100× g for 5 min at room temperature, pelleted bacteria were fixed in 2.5% glutaraldehyde (Polysciences, Warrington, PA) in 0.1 M Na cacodylate buffer, pH 7.4, for 1 h at 4 °C, rinsed twice and post-fixed in Na cacodylate-buffered 1% OsO4 for 1 h at 4 °C. The samples were dehydrated through a series of graded ethanol solutions and propylene oxide and embedded in Poly/Bed 812 resin mixture. […]

MSSA ATCC 29213 = test: MIC/MBC determination in LB broth, MSSA; assay type: cell-based, Staphylococcus aureus; settings: MSSA ATCC 29213
Description: as §1, §5

ESBL E. coli [3] = test: MIC in LB broth, ESBL E. coli clinical isolate; assay type: cell-based, Escherichia coli
Description: as §2, §1, §5

MDRSA 12.1 = test: Broth microdilution MIC, MDRSA 12.1; assay type: cell-based, Staphylococcus aureus
Description: (§6) Antimicrobial activity of 1–8 was evaluated on both Gram-positive (Table 3) and Gram-negative (Table 4) species. As a continuation of our previous studies, considering the Gram-positive S. aureus, we chose a methicillin-sensitive S. aureus (MSSA, ATCC 29213), a methicillin-resistant S. aureus (MRSA, ATCC 43300) and two clinical isolates of S. aureus showing multi-drug resistance (MDRSA).
as §3, §4

MDRSA 11.7 = test: Broth microdilution MIC, MDRSA 11.7; assay type: cell-based, Staphylococcus aureus
Description: as §6, §3, §4

[4] = tested on: Methicillin Sensitive S. aureus; settings: Methicillin Sensitive S. aureus; ref 10 (Z2, Z3), 11 (TXY436), 12 (I, II); cited from earlier work
E. coli AcrAB– = settings: ref 10 (Z2, Z3), 11 (TXY436), 12 (I, II); cited from earlier work
E. coli WildType = tested on: E. coli WildType; set-up: method as in earlier work; settings: ref 10 (Z2, Z3), 11 (TXY436), 12 (I, II); cited from earlier work
ESBL E. coli [5] = tested on: ESBL E. coli; set-up: method as in PMID 31750973; settings: in-house reference compounds ref 12; cited from earlier work
E. coli N43 [6] = tested on: E. coli N43; set-up: method as in PMID 31750973; settings: E. coli N43 (AcrAB knockout); in-house reference compounds ref 12; cited from earlier work
Sa cells = tested on: Sa cells; set-up: method as in PMID 31750973; settings: Sa cells incubated with the compounds ref 12; cited from earlier work
E. coli ATCC 25922 [7] = tested on: E. coli ATCC 25922; set-up: method as in PMID 31750973; settings: in-house reference compounds ref 12; cited from earlier work
[8] = tested on: selected Gram-negative strains; set-up: method as in PMID 24637241; settings: after genetic inactivation of AcrAB or its inhibition by PaβN ref 11; cited from earlier work

**Q.** With “3-(1,4-benzoxathiane-2-yl)-2,6-difluorobenzamide [Compound 1]” as the compound, how does the TD90 (MRC-5 cells) read?
**A.** The TD90 was over 800 µg/mL.

**Q.** And the MIC (E. coli N43 [1])?
**A.** The MIC was 64 µg/mL.

**Q.** What about the MBC (MRSA ATCC 43300) of the same compound?
**A.** Its MBC is 1 µg/mL.

**Q.** And the MBC/MIC (MRSA ATCC 43300)?
**A.** Its MBC/MIC is 1.

**Q.** And the MIC (MRSA ATCC 43300)?
**A.** Its MIC is 1 µg/mL.

**Q.** What about the MIC (E. coli ATCC 25922 [2]) of the same compound?
**A.** The MIC was over 100 µg/mL.

**Q.** What about the “Morphological changes in septum formation (TEM)” value (S. aureus ATCC 43300) of the same compound?
**A.** The value was “strong alterations in the septum formation and bacterial desegregation”.

**Q.** What about the MBC (MSSA ATCC 29213) of the same compound?
**A.** Its MBC is 1 µg/mL.

**Q.** What about the MBC/MIC (MSSA ATCC 29213) of the same compound?
**A.** The MBC/MIC was 1.

**Q.** What about the MIC (MSSA ATCC 29213) of the same compound?
**A.** Its MIC is 1 µg/mL.

**Q.** And the MIC (ESBL E. coli [3])?
**A.** Its MIC is over 100 µg/mL.

**Q.** What about the MIC (MDRSA 12.1) of the same compound?
**A.** The MIC was 2 µg/mL.

**Q.** What about the MIC (MDRSA 11.7) of the same compound?
**A.** The MIC was 2 µg/mL.

**Q.** For `CC[n+]1c(/C=C/N(C)c2ccccc2)n(-c2ccccc2)c2ccc(-c3nc4ccccc4s3)cc21` [Compound Z2], which MIC [4] is on record?
**A.** The MIC was 0.6 µg/mL.

**Q.** What about the MIC (E. coli AcrAB–) of the same compound?
**A.** The MIC was 2.5 µg/mL.

**Q.** And the MIC (E. coli WildType)?
**A.** The MIC was 20 µg/mL.

**Q.** For `Cc1nc(-c2ccc3c(c2)OC(COc2ccc(F)c(C(N)=O)c2F)CO3)no1` (stereo not shown) [II], which MIC [4] is on record?
**A.** The MIC was 0.6 µg/mL (≈ 1.49 µM).

**Q.** What about the MIC (E. coli AcrAB–) of the same compound?
**A.** The MIC was 16 µg/mL (≈ 39.7 µM).

**Q.** And the MIC (ESBL E. coli [5])?
**A.** Its MIC is over 100 µg/mL.

**Q.** And the MIC (E. coli N43 [6])?
**A.** The MIC was 16 µg/mL (≈ 39.7 µM).

**Q.** What about the “Morphometric analysis by TEM” value (Sa cells) of the same compound?
**A.** Its value is “significant elongation in cellular dimension, bacterial swelling and cell desegregation”.

**Q.** What about the MIC (E. coli ATCC 25922 [7]) of the same compound?
**A.** Its MIC is over 100 µg/mL.

**Q.** What does the source list for `CSc1nc(-c2ccc3c(c2)OC(COc2ccc(F)c(C(N)=O)c2F)CO3)no1` (stereo not shown) [I]?
**A.** MIC [4]: 0.6 µg/mL (≈ 1.38 µM); MIC (E. coli AcrAB–): 16 µg/mL (≈ 36.7 µM); MIC (ESBL E. coli [5]): >100 µg/mL; MIC (E. coli N43 [6]): 16 µg/mL (≈ 36.7 µM); Morphometric analysis by TEM (Sa cells): significant elongation in cellular dimension, bacterial swelling and cell desegregation; MIC (E. coli ATCC 25922 [7]): >100 µg/mL

**Q.** What does the source list for `CN(C)CNC(=O)c1c(F)ccc(OCc2nc3cc(Cl)cnc3s2)c1F` [TXY436]?
**A.** MIC [4]: 1.0 µg/mL (≈ 2.42 µM); MIC (E. coli AcrAB–): 8 µg/mL (≈ 19.4 µM); MIC [8]: 8 µg/mL (≈ 19.4 µM)
